Measurements from patent publication US9802960B2 (MILLENNIUM PHARMACEUTICALS, INC., priority 2014, dated 2017).

Target: Human VPS34 (Homo sapiens (Human), UniProt Q8NEB9)
Assay: Human VPS34 enzyme assay (Adapta TR-FRET)
Assay type: biochemical
Conditions: for inhibition at 1.11 µM: read-out: Percent Inhibition

Human VPS34, sequence (Q8NEB9 whole entry): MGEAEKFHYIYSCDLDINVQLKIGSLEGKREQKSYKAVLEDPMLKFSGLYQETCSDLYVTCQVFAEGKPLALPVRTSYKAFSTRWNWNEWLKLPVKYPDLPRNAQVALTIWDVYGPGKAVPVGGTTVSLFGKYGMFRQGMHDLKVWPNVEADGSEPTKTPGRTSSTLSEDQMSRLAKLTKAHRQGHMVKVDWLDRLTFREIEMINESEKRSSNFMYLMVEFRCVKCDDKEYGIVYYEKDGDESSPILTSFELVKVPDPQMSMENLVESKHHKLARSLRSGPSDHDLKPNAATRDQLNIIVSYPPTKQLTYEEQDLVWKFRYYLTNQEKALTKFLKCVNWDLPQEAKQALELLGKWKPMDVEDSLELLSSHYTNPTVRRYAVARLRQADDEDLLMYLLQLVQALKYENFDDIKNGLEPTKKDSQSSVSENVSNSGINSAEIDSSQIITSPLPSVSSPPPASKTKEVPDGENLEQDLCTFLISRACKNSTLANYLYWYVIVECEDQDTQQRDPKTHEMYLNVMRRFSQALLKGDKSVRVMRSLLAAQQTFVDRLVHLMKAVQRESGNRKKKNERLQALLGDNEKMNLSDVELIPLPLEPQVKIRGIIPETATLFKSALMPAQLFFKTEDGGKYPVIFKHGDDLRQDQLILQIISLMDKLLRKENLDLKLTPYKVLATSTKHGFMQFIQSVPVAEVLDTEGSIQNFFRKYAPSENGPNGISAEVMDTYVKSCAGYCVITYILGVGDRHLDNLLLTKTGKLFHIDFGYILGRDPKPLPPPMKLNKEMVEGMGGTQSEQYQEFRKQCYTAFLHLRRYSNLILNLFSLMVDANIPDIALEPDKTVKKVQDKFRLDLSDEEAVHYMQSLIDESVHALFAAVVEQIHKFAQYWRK

Structure (SMILES)	inhibition at 1.11 µM (compound concentration 1.11 μM) [%]	also measured
CC(=O)Nc1cc(-c2cnc(C)c(NS(=O)(=O)C3CCCCC3)c2)ccn1 [Compound I-72, N-{5-[(cyclohexylsulfonyl)amino]-6-methyl-3,4′-bipyridin-2′-yl}acetamide]	> 99	
CC(=O)Nc1cc(-c2cnc(N)c(S(=O)(=O)NCC(C)C)c2)ccn1 [Compound I-73, N-[6-amino-5-(isobutylsulfamoyl)-3,4′-bipyridin-2′-yl]acetamide]		Percent Inhibition (compound concentration 1.11 μM): >99%
COc1ccccc1S(=O)(=O)Nc1cc(-c2ccnc(NC(C)=O)c2)cnc1C [Compound I-74, N-(5-{[(2-methoxyphenyl)sulfonyl]amino}-6-methyl-3,4′-bipyridin-2′-yl)acetamide]	> 99	
CC(=O)Nc1cc(-c2cnc(C)c(C(=O)N(C)C)c2)ccn1 [Compound I-75, 2′-acetamido-N,N,6-trimethyl-3,4′-bipyridine-5-carboxamide]	> 99	
CC(=O)Nc1cc(-c2cnc(N)c(S(=O)(=O)N(C)Cc3ccccc3)c2)ccn1 [Compound I-76]	> 99	
CC(=O)Nc1cc(-c2cnc(N)c(S(=O)(=O)N(C(C)C)C(C)C)c2)ccn1 [Compound I-77, N-[6-amino-5-(diisopropylsulfamoyl)-3,4′-bipyridin-2′-yl]acetamide]	> 99	
CC(=O)Nc1cc(-c2cnc(C)c(NS(=O)(=O)c3cccc4ccccc34)c2)ccn1 [Compound I-78, N-{6-methyl-5-[(1-naphthylsulfonyl)amino]-3,4′-bipyridin-2′-yl}acetamide]	> 99	
CC(=O)Nc1cc(-c2cnc(N)c(C(=O)N3CCN(C)CC3)c2)ccn1 [Compound I-79, N-{6-amino-5-[(4-methylpiperazin-1-yl)carbonyl]-3,4′-bipyridin-2′-yl}acetamide]	> 99	
CC(=O)Nc1cc(-c2cnc(C)c(NS(=O)(=O)c3ccc(C)cc3)c2)ccn1 [Compound I-80, N-(6-methyl-5-{[(4-methylphenyl)sulfonyl]amino}-3,4′-bipyridin-2′-yl)acetamide]	> 99	
CC(=O)Nc1cc(-c2cnc(N)c(C(=O)N3CCC(C)CC3)c2)ccn1 [Compound I-81, N-{6-amino-5-[(4-methylpiperidin-1-yl)carbonyl]-3,4′-bipyridin-2′-yl}acetamide]	> 99	
CC(=O)Nc1cc(-c2cnc(N)c(C(=O)Nc3cccc(F)c3)c2)ccn1 [Compound I-82, 2′-acetamido-6-amino-N-(3-fluorophenyl)-3,4′-bipyridine-5-carboxamide]	> 99	
CC(=O)Nc1cc(-c2cnc(C)c(N(CC3CC3)S(=O)(=O)C3CC3)c2)ccn1 [Compound I-83, N-{5-[(cyclopropylmethyl)(cyclopropylsulfonyl)amino]-6-methyl-3,4′-bipyridin-2′-yl}acetamide]	82	
CC(=O)Nc1cc(-c2cnc(C)c(NS(=O)(=O)c3ccccc3)c2)ccn1 [Compound I-84, N-{6-methyl-5-[(phenylsulfonyl)amino]-3,4′-bipyridin-2′-yl}acetamide]	> 99	
CC(=O)Nc1cc(-c2cnc3[nH]cc(CN(C)C)c3c2)ccn1 [Compound I-85]	90	
CC(=O)Nc1cc(-c2ccc(S(=O)(=O)Nc3cc(-c4ccnc(NC(C)=O)c4)cnc3C)c(F)c2)ccn1 [Compound I-86, N-(4-{4-[(2′-acetamido-6-methyl-3,4′-bipyridin-5-yl)sulfamoyl]-3-fluorophenyl}pyridin-2-yl)acetamide]	> 99	
CC(=O)Nc1cc(-c2cnc(N)c(S(=O)(=O)N3CCCC3)c2)ccn1 [Compound I-87, N-[6-amino-5-(pyrrolidin-1-ylsulfonyl)-3,4′-bipyridin-2′-yl]acetamide]	> 99	
CC(=O)Nc1cc(-c2cnc(C)c(N3CCCS3(=O)=O)c2)ccn1 [Compound I-88, N-[5-(1,1-dioxidoisothiazolidin-2-yl)-6-methyl-3,4′-bipyridin-2′-yl]acetamide]	> 99	
CNS(=O)(=O)c1cc(-c2ccnc(NC(C)=O)c2)cnc1N [Compound I-89, N-[6-amino-5-(methylsulfamoyl)-3,4′-bipyridin-2′-yl]acetamide]	> 99	
CC(=O)Nc1cc(-c2cnc(C)c(NS(=O)(=O)c3ccc(C(F)(F)F)cc3)c2)ccn1 [Compound I-90, N-[6-methyl-5-({[4-(trifluoromethyl)phenyl]sulfonyl}amino)-3,4′-bipyridin-2′-yl]acetamide]	> 99	
CC(=O)Nc1cc(-c2cnc(N)c(C(=O)Nc3cccnc3)c2)ccn1 [Compound I-91, 2′-acetamido-6-amino-N-(pyridin-3-yl)-3,4′-bipyridine-5-carboxamide]	> 99	

Further lines, with some results ahead:

inhibition at 1.11 µM (compound concentration 1.11 μM) [%]	Structure (SMILES)	also measured
> 99	CC(=O)Nc1cc(-c2cnc(C)c(NS(=O)(=O)c3nccn3C)c2)ccn1 [Compound I-92, N-(6-methyl-5-{[(1-methyl-1H-imidazol-2-yl)sulfonyl]amino}-3,4′-bipyridin-2′-yl)acetamide]	IC50 (IC50 range class): 0.01 to 0.05 µM
86	CC(=O)Nc1cc(-c2cnc3ccn(CC4CC4)c3c2)ccn1 [Compound I-93]	
98	CC(=O)Nc1cc(-c2cnc(C)c(NS(=O)(=O)c3ccc(Cl)cc3F)c2)ccn1 [Compound I-94, N-(5-{[(4-chloro-2-fluorophenyl)sulfonyl]amino}-6-methyl-3,4′-bipyridin-2′-yl)acetamide]	
> 99	CC(=O)Nc1cc(-c2cnc(N)c(S(C)(=O)=O)c2)ccn1 [Compound I-95, N-[6-amino-5-(methylsulfonyl)-3,4′-bipyridin-2′-yl]acetamide]	
> 99	CC(=O)Nc1cc(-c2cnc(C)c(N(C)S(C)(=O)=O)c2)ccn1 [Compound I-96, N-{6-methyl-5-[methyl(methylsulfonyl)amino]-3,4′-bipyridin-2′-yl}acetamide]	
> 99	CC(=O)Nc1cc(-c2cnc(N)c(S(=O)(=O)Nc3cccc(Cl)c3)c2)ccn1 [Compound I-97, N-{6-amino-5-[(3-chlorophenyl)sulfamoyl]-3,4′-bipyridin-2′-yl}acetamide]	
> 99	CC(=O)Nc1cc(-c2cnc(N)c(S(=O)(=O)Nc3ccc4ccccc4c3)c2)ccn1 [Compound I-98, N-[6-amino-5-(2-naphthylsulfamoyl)-3,4′-bipyridin-2′-yl]acetamide]	
> 99	CC(=O)Nc1cc(-c2cnc(N)c(S(=O)(=O)Cc3ccc(Cl)cc3)c2)ccn1 [Compound I-99, N-{6-amino-5-[(4-chlorobenzyl)sulfonyl]-3,4′-bipyridin-2′-yl}acetamide]	
> 99	CNc1ncc(-c2ccnc(NC(C)=O)c2)cc1S(=O)(=O)Nc1ccccc1 [Compound I-100, N-[6-(methylamino)-5-(phenylsulfamoyl)-3,4′-bipyridin-2′-yl]acetamide]	
> 99	CC(=O)Nc1cc(-c2cnc(N)c(S(=O)(=O)NC3CCCCC3)c2)ccn1 [Compound I-101, N-[6-amino-5-(cyclohexylsulfamoyl)-3,4′-bipyridin-2′-yl]acetamide]	
> 99	CC(=O)Nc1cc(-c2cncc(NS(=O)(=O)c3ccc(F)cc3F)c2C)ccn1 [Compound I-102, N-(5-{[(2,4-difluorophenyl)sulfonyl]amino}-4-methyl-3,4′-bipyridin-2′-yl)acetamide]	
> 99	CC(=O)Nc1cc(-c2cnc3[nH]cc(S(=O)(=O)N4CCN(C)CC4)c3c2)ccn1 [Compound I-103, N-(4-{3-[(4-methylpiperazin-1-yl)sulfonyl]-1H-pyrrolo[2,3-b]pyridin-5-yl}pyridin-2-yl)acetamide]	
> 99	COc1ncc(-c2ccnc(NC(C)=O)c2)cc1NS(=O)(=O)c1ccc(F)cc1F [Compound I-104, N-(5-{[(2,4-difluorophenyl)sulfonyl]amino}-6-methoxy-3,4′-bipyridin-2′-yl)acetamide]	
> 99	CC(=O)Nc1cc(-c2cnc3cn(S(=O)(=O)C4CC4)nc3c2)ccn1 [Compound I-105, N-{4-[2-(cyclopropylsulfonyl)-2H-pyrazolo[4,3-b]pyridin-6-yl]pyridin-2-yl}acetamide]	
64	CC(=O)Nc1cc(-c2cncc(NC(=O)Cc3ccccc3)c2)ccn1 [Compound I-106, N-(2′-acetamido-3,4′-bipyridin-5-yl)-2-phenylacetamide]	
> 99	COc1ncc(-c2ccnc(NC(C)=O)c2)cc1S(=O)(=O)Nc1ccc(F)cc1F [Compound I-107, N-{5-[(2,4-difluorophenyl)sulfamoyl]-6-methoxy-3,4′-bipyridin-2′-yl}acetamide]	
> 99	CC(=O)Nc1cc(-c2cnc(N)c(S(=O)(=O)NCC3CC3)c2)ccn1 [Compound I-108, N-{6-amino-5-[(cyclopropylmethyl)sulfamoyl]-3,4′-bipyridin-2′-yl}acetamide]	
> 99	CC(=O)Nc1cc(-c2cnc(C)c(NS(=O)(=O)c3ccccc3Cl)c2)ccn1 [Compound I-109, N-(5-{[(2-chlorophenyl)sulfonyl]amino}-6-methyl-3,4′-bipyridin-2′-yl)acetamide]	
> 99	CC(=O)Nc1cc(-c2cnc(N)c(S(=O)(=O)N(C)CC3CC3)c2)ccn1 [Compound I-110, N-{6-amino-5-[(cyclopropylmethyl)(methyl)sulfamoyl]-3,4′-bipyridin-2′-yl}acetamide]	
> 99	CC(=O)Nc1cc(-c2cnc(C)c(NS(=O)(=O)c3cc(Cl)ccc3Cl)c2)ccn1 [Compound I-111, N-(5-{[(2,5-dichlorophenyl)sulfonyl]amino}-6-methyl-3,4′-bipyridin-2′-yl)acetamide]	
> 99	CC(=O)Nc1cc(-c2cnc(N(C)C)c(C(=O)Nc3ccc(F)cc3F)c2)ccn1 [Compound I-112, 2′-acetamido-N-(2,4-difluorophenyl)-6-(dimethylamino)-3,4′-bipyridine-5-carboxamide]	
> 99	CC(=O)Nc1cc(-c2cnc(C)c(NS(=O)(=O)c3ccc(OC(F)(F)F)cc3Cl)c2)ccn1 [Compound I-113, N-[5-({[2-chloro-4-(trifluoromethoxy)phenyl]sulfonyl}amino)-6-methyl-3,4′-bipyridin-2′-yl]acetamide]	
